Literature values in patent US20100035919A1, “COMPOUNDS USEFUL AS INHIBITORS OF PROTEIN KINASES” (ABBOTT LABORATORIES, priority 2008, published 2010).

Tests used:
rat = conditions: experimental myocardial infarction (MI); rat model of chronic hypertension induced congestive heart failure
OLETF rats = conditions: high dose
vein grafts = conditions: weeks following the procedure
Zucker obese rats = conditions: 4 weeks

Row | SMILES | effect on ischemia-reperfusion injury, myocardial infarct size and myocardial fibrosis (rat) | cerebral blood flow (in vivo) | neuroprotection (under CNS ischemic conditions) | development of diabetes, obesity, and dyslipidemia (OLETF rats) | serum adiponectin levels (OLETF rats) | VSMC apoptosis (vein grafts) | intimal thickening and vascular smooth muscle cell (VSMC) proliferation (vein grafts) | blood pressure, glucose and lipid metabolism, insulin signalling, endothelial dysfunction (Zucker obese rats)
1 | C[C@@H](N)[C@H]1CC[C@H](C(=O)Nc2ccncc2)CC1 [Example Y-27632, Y-27632] | decrease ischemia-reperfusion injury, myocardial infarct size, and myocardial fibrosis |  |  |  |  |  |  | 
2 | O=S(=O)(c1cccc2cnccc12)N1CCCNCC1 [fasudil] | decrease ischemia-reperfusion injury, myocardial infarct size, and myocardial fibrosis | increased cerebral blood flow | neuroprotective | completely suppressed | increased | enhanced | significantly suppressed | reduced blood pressure, corrected glucose and lipid metabolism, improved insulin signalling and endothelial dysfunction
